In US12338205B2, “Crystalline form of 3-((L-valyl) amino)-1-propanesulfonic acid” (RISEN (SUZHOU) PHARMA TECH CO., LTD., priority 2018, dated 2025):

Key:
[1] = Pharmacokinetics comparative experiment, plasma concentration by LC/MS2 after capsule intragastric administration; assay type: in vivo; conditions: SD rats, 133 mg/kg, solid capsule intragastric administration
Excerpt: By means of a pharmacokinetics comparative experiment, the […] feature of the crystalline form I provided herein after administration is compared with that of the amorphous solid of Example 1 as a reference sample.
SD rats (all male, weight of 260-280 g) were randomizely grouped, each group of 3 animals. The medication group received the crystalline form compound (No. S08S02S15a) of the Example 2, the crystalline form compound (No. S08S04S22a) of the Example 7, and the crystalline form compound (No. S08S19S24a) of the Example 8, respectively, and the control group received the reference sample (the amorphous solid of Example 1). The animals were fasted for 12 hours before administration, and the dosage of administration was 133 mg/kg. The corresponding medications were administered by intragastric administration using a solid capsule administration system (Size 9el Rat Box+Foam+Funnel+Syringe). Rat plasma samples were collected before administration, and 0.08, 0.16, 0.33, 0.5, 1, 1.5, 2, 3, 4, 6, and 8 h after administration, respectively. After heparin tube anticoagulation, centrifugation was performed at 5000 rpm for 10 min at a temperature of 4° C. A plasma supernatant sample was taken and subjected to protein precipitation using methanol, and then, the medication concentration in the plasma was monitored by LC/MS2.

[2] = Thermogravimetric analysis (TGA); assay type: physicochemical; conditions: for slow weight loss (TGA): before about 120° C., showing that it is an anhydrate; for decomposition temperature (TGA): nitrogen, ramp 10° C./min
Procedure: The thermogravimetric analyzer (TGA) involved herein is Q500TGA from TA Instruments; detection conditions: a platinum crucible, a protective atmosphere of nitrogen, a gas flow rate of 40 mL/min; and the following detection method: a Hi-Res sensitivity of 3.0, ramp 10.00° C./min, res 5.0 to 120.00° C., and ramp 10.00° C./min to 350° C.

[3] = compared with amorphous solid of Example 1

Compound: CC(C)[C@H](N)C(=O)NCCCS(=O)(=O)O [Crystalline Form I, 3-((L-valyl)amino)-1-propanesulfonic acid]
- exposure AUC [1, 3]: effectively improve
- half-life period T1/2 [1, 3]: effectively improve
- maximum blood concentration Cmax [1, 3]: effectively improve
- medication dissolution ([1]; compared with reference sample (amorphous solid of Example 1), FIGS. 21-24): improving
- slow weight loss (TGA) ([2]; listed as Example 2): about 0.5 wt %
- slow weight loss (TGA) ([2]; listed as Example 6): about 0.5 wt %
- slow weight loss (TGA) ([2]; listed as Example 7): about 1.4 wt %
- slow weight loss (TGA) ([2]; listed as Example 8): about 0.2 wt %
- slow weight loss (TGA) ([2]; listed as Example 9): about 1.2 wt %
- slow weight loss (TGA) ([2]; listed as Example 14): about 0.5 wt %
- slow weight loss (TGA) ([2]; listed as Example 24): about 0.6 wt %
- decomposition temperature (TGA) ([2]; listed as Example 2): about 307 °C
- decomposition temperature (TGA) ([2]; listed as Example 6): about 300 °C
- decomposition temperature (TGA) ([2]; listed as Example 7): about 302 °C
- decomposition temperature (TGA) ([2]; listed as Example 8): about 314 °C
- decomposition temperature (TGA) ([2]; listed as Example 9): about 303 °C
- decomposition temperature (TGA) ([2]; listed as Example 14): about 310 °C
- decomposition temperature (TGA) ([2]; listed as Example 24): about 317 °C
